These results are taken from patent US20100311677A1, “Active Ingredient Combinations Having Insecticidal and Acaricidal Properties” (Bayer CropScience AG, priority 2007, published 2010).

Read-outs that look alike come from different tables or passages of the source.

Test [1] has as its system Myzus persicae. Nature of the test: Myzus persicae test (Example C), sprayed cabbage leaves. It counts as in vivo. The note with it: for pest or weed control at 0.032 g/ha / pest or weed control at 0.8 g/ha / pest or weed control at 0.16 g/ha / pest or weed control at 4 g/ha: Myzus persicae, 144 h, read-out: Kill in % after 6d.
Test [2] has as its system Spodoptera frugiperda. Description: Spodoptera frugiperda larvae test (Example F), sprayed cabbage leaves. The class given is in vivo. From the text:
Spodoptera frugiperda Larvae Test

In test [3] the test system is Phaedon cochleariae. Nature of the test: Phaedon cochleariae larvae test (Example E), sprayed cabbage leaves. The note with it: for Kill in % after 6d / Kill in % after 2d: alone.
Test [4] relates to Tetranychus urticae. Nature of the test: Tetranychus urticae test (OP-resistant/spray treatment) (Example G), bean leaf disks. The class given is in vivo. The note with it: for pest or weed control at 100 g/ha / pest or weed control at 0.8 g/ha / pest or weed control at 4 g/ha / pest or weed control at 20 g/ha: Tetranychus urticae, foliar, 144 h, read-out: Kill in % after 6 d. The protocol: Tetranychus urticae Test (OP-Resistant/Spray Treatment)
After the desired period of time, the activity in % is determined.

The test system of test [5] is Bemisia tabaci. Nature of the test: Bemisia tabaci test (Example B), sprayed cotton leaves, larval stages. The class given is in vivo. The settings on record: 4 g/ha, alone.
Test [6] concerns Nilaparvata lugens. Description: Nilaparvata lugens test (Example D), sprayed rice plants. It counts as in vivo. The settings on record: 0.8 g/ha, alone.
Test [7] relates to Aphis gossypii. Description: Aphis gossypii test (Example A), sprayed cotton leaves. It counts as in vivo. The settings on record: 0.16 ppm, alone.
Where [8] appears, read: Spodoptera frugiperda, 144 h, alone, after 6 d, read-out: Kill in % after 6d.
The mark [9] stands for this setting: Phaedon cochleariae, in Brassica oleracea, 144 h, read-out: Kill in % after 6d.
Setting [10] is: active compound alone, after 6 d.
Setting [11] is: Spodoptera frugiperda, 144 h, 0.8 g/ha, alone, after 6 d, read-out: Kill in % after 6d.
[12] abbreviates: active compound alone, 4 g/ha, after 6 d.
Setting [13] is: active compound alone, 20 g/ha, after 6 d.

Consider `CC1(C)C(/C=C(\Cl)C(F)(F)F)C1C(=O)OC(C#N)c1cccc(Oc2ccccc2)c1` [L-cyhalothrin (12a), lambda-cyhalothrin], for which the pest or weed control at 0.032 g/ha in test [1] (alone, after 6 d) was determined as 0%. Moreover, the pest or weed control at 4 g/ha in test [2] (setting [8]) stood at 50%. Besides, the pest or weed control at 0.16 g/ha in test [3] (setting [9]) was 0%.

Take `COP(=O)(NC(C)=O)SC` (centres unmarked) [acephate (112), acephate]: the pest or weed control at 100 g/ha in test [4] amounted to 0%. Moreover, the pest or weed control at 0.8 g/ha in test [1] was determined as 0%. In test [2] (Spodoptera frugiperda, 144 h, read-out: Kill in % after 6d), the pest or weed control at 20 g/ha came to 33%.

As for `CC1(C)C(C=C(Cl)Cl)C1C(=O)OC(C#N)c1cccc(Oc2ccccc2)c1` (stereo not drawn) [alpha-cypermethrin (2), alpha-cypermethrin], the pest or weed control at 0.8 g/ha in test [4] (setting [10]) and in test [3] (setting [9]) was 0% throughout. Further, in test [1] (0.16 g/ha, alone, after 6 d), the pest or weed control at 0.16 g/ha stood at 0%. Also, in test [2] (0.8 g/ha, alone), the “Kill in % after 2d” value came out at 33%.

Regarding `Cc1c(COC(=O)C2C(/C=C(\Cl)C(F)(F)F)C2(C)C)cccc1-c1ccccc1` (centres unmarked) [bifenthrin (18), bifenthrin], the pest or weed control at 0.8 g/ha in test [2] (setting [11]) was determined as 0%.

Turning to `CC(C)N1C(=O)N(c2ccccc2)CS/C1=N\C(C)(C)C` [buprofezin (42), buprofezin], in test [4] (100 g/ha, alone, after 2 d), the “Kill in % after 2d” value was 0%. The “Kill in % after 1d” value in test [1] (4 g/ha, alone) came to 0%. Further, the pest or weed control at 100 g/ha in test [3] (setting [9]) came to 0%. In test [5], the “Kill in % after 10d” value is 30%. The “Kill in % after 6d” value in test [6] was determined as 10%.

Turning to `Cc1cc(C(F)(C(F)(F)F)C(F)(F)F)ccc1NC(=O)c1cccc(Cl)c1C(=O)N[C@@H](C)CS(C)(=O)=O` [compound (55)], the pest or weed control at 4 g/ha in test [4] (setting [12]) was found to be 0%. Further, the pest or weed control at 0.16 g/ha in test [1] (0.16 g/ha, alone, after 6 d) was determined as 0%. For the same compound, the pest or weed control at 0.8 g/ha came to 50% in test [2] (setting [11]) and 0% in test [3] (setting [9]).

For the compound `CC1(C)C(C=C(Cl)Cl)C1C(=O)OC(C#N)c1cccc(Oc2ccccc2)c1` (centres unmarked) [cypermethrin (5), cypermethrin], the pest or weed control at 4 g/ha stood at 0% in test [4] (setting [12]) and 67% in test [3] (setting [9]). Also, the pest or weed control at 0.8 g/ha in test [2] (setting [11]) amounted to 17%.

`CC(C)C(C(=O)OC(C#N)c1cccc(Oc2ccccc2)c1)c1ccc(Cl)cc1` (centres unmarked) [esfenvalerate (7), esfenvalerate]: the pest or weed control at 0.8 g/ha in test [4] (setting [10]) is 0%. For the same compound, the “Kill in % after 1d” value in test [1] (0.16 g/ha, alone) is 0%. Moreover, in test [3] (setting [9]), the pest or weed control at 4 g/ha is 83%.

As for `Cc1cc(C(F)(C(F)(F)F)C(F)(F)F)ccc1NC(=O)c1cccc(I)c1C(=O)NC(C)(C)CS(C)(=O)=O` [flubendiamide (54), flubendiamide], the “Kill in % after 6d” value in test [4] (setting [13]) is on record as 0%; in test [1] (0.8 g/ha, alone, after 6 d), 0%; in test [2] (0.8 g/ha, alone, after 6 d) it was 0%; in test [3] (20 g/ha), 0%.

Take `CC1(C)[C@H](/C=C(\Cl)C(F)(F)F)[C@@H]1C(=O)O[C@H](C#N)c1cccc(Oc2ccccc2)c1` [gamma-cyhalothrin (12b), gamma-cyhalothrin]: the “Kill in % after 2d” value in test [2] (0.032 g/ha, alone) was found to be 5%. In test [7], the “Kill in % after 6d” value was 0%.

On to `COC(=O)N(C(=O)N1COC2(C(=O)OC)Cc3cc(Cl)ccc3C2=N1)c1ccc(OC(F)(F)F)cc1` (centres unmarked) [indoxacarb (94), indoxacarb], for which the pest or weed control at 100 g/ha in test [4] (active compound alone, 100 g/ha, after 6 d) was 0%. The pest or weed control at 4 g/ha was determined as 0% in test [1] (4 g/ha, alone, after 6 d) and 0% in test [2] (setting [8]).

Turning to `O=C(NC(=O)c1c(F)cccc1F)Nc1cc(Cl)c(OC(F)(F)C(F)C(F)(F)F)cc1Cl` (centres unmarked) [lufenuron (34), lufenuron], the pest or weed control at 20 g/ha in test [4] (setting [13]) came out at 0%. For the same compound, in test [1] (0.8 g/ha, alone, after 6 d), the pest or weed control at 0.8 g/ha turned out to be 0%. The “Kill in % after 2d” value in test [2] (100 g/ha, alone) is reported as 0%.

As to `COP(N)(=O)SC` (centres unmarked) [methamidophos (113), methamidophos], the pest or weed control at 20 g/ha in test [4] (setting [13]) came out at 0%. Besides, the pest or weed control at 4 g/ha in test [1] (4 g/ha, alone, after 6 d) worked out at 0%. Moreover, the “Kill in % after 2d” value in test [2] (100 g/ha, alone) came to 67%; in test [3] (100 g/ha) it was 0%.

Take `CC1=NNC(=O)N(/N=C/c2cccnc2)C1` [pymetrozine (88), pymetrozine]: the pest or weed control at 20 g/ha in test [4] (setting [13]) was 0%. Further, the “Kill in % after 1d” value in test [1] (20 g/ha, alone) is 20%. The pest or weed control at 100 g/ha in test [3] (setting [9]) is 0%.

Regarding `CC(COc1ccc(Oc2ccccc2)cc1)Oc1ccccn1` (centres unmarked) [pyriproxifen (90), pyriproxyfen], the pest or weed control at 20 g/ha in test [4] (setting [13]) turned out to be 0%. Moreover, in test [1] (0.8 g/ha, alone, after 6 d), the pest or weed control at 0.8 g/ha is 0%. Moreover, in test [3] (setting [9]), the pest or weed control at 100 g/ha stood at 0%.

On to `CCOC(=O)OC1=C(c2cc(C)ccc2C)C(=O)N[C@]12CC[C@@H](OC)CC2` [spirotetramat (98), spirotetramat], for which, in test [4] (setting [12]), the pest or weed control at 4 g/ha is 50%. In addition, the pest or weed control at 20 g/ha in test [2] (Spodoptera frugiperda, 144 h, 20 g/ha, alone, after 6 d, read-out: Kill in % after 6d) worked out at 0%; in test [3] (setting [9]), 50%.

Take `N#C/N=C1\SCCN1Cc1ccc(Cl)nc1` [thiacloprid (28), thiacloprid]: the pest or weed control at 0.8 g/ha in test [4] (setting [10]) came to 0%. For the same compound, in test [1] (alone, after 6 d), the pest or weed control at 0.032 g/ha was 0%. Further, the “Kill in % after 2d” value in test [3] (4 g/ha) is reported as 0%.

For the compound `CS/C(C)=N/OC(=O)N(C)SN(C)C(=O)O/N=C(\C)SC` [thiodicarb (111), thiodicarb], in test [4] (setting [13]), the pest or weed control at 20 g/ha is 0%. In test [2] (setting [8]), the pest or weed control at 4 g/ha amounted to 67%. In addition, the pest or weed control at 100 g/ha in test [3] (setting [9]) was 0%.

For the compound `O=C(NC(=O)c1ccccc1Cl)Nc1ccc(OC(F)(F)F)cc1` [triflumuron (36), triflumuron], the pest or weed control at 20 g/ha in test [4] (setting [13]) was found to be 0%. Besides, the pest or weed control at 4 g/ha in test [1] (4 g/ha, alone, after 6 d) was determined as 0%. Besides, the pest or weed control at 0.16 g/ha in test [2] (Spodoptera frugiperda, 144 h, 0.16 g/ha, alone, after 6 d, read-out: Kill in % after 6d) came out at 0%. The “Kill in % after 2d” value in test [3] (20 g/ha) is recorded as 17%.

As for spinosad [spinosad (79)], the “Kill in % after 6d” value in test [4] (setting [12]) is reported as 80%; in test [1] (0.8 g/ha, alone, after 6 d), 0%; in test [3] (0.8 g/ha) it was 0%. Also, the “Kill in % after 2d” value in test [2] (0.8 g/ha, alone) is recorded as 0%.
